Data taken from US20240018129A1, “COMPOUNDS AS PU. 1 INHIBITORS” (PEKING UNIVERSITY, priority 2020, published 2024).

Key:
PU.1 = target: T1, PU.1 (Mus musculus, UniProt P17433); assay: q-PCR of TIM-3 expression in Blast-PU.1 cells (PU.1 inhibition potency); type: cell-based
T1 construct: EGFP (from 'PU.1-EGFP-vector'); expressed in transfected cells
Excerpt: An acute T cell lymphoblastic leukemia (T-ALL) disease model was used to evaluate the effect of the newly synthesized compounds on PU.1 inhibition. Pten, a famous tumor suppressor gene, was […] deleted in mouse hematopoietic stem cells and their differentiated progeny, and this would eventually lead to a progressive T-ALL in about two months from born. It is believed that immune checkpoint T cell immunoglobulin mucin-3 (TIM-3), a surface marker for the isolation of pure leukemia-initiating cells (LICs), is transcriptionally regulated by transcription factor PU.1 in the Pten-null T-ALL model. Therefore, the expression level of TIM-3 was detected and quantified to characterize the inhibition potency of the compounds after 24 h treatment of graded concentrations of compounds. Blast cells were transfected with either PU.1-EGFP-vector or EGFP-vector to yield stable cell lines blast-PU.1 and blast-EGFP, respectively. These cell lines were used for compound testing in vitro. Compounds DB1976 and DB2115 were tested as well for comparison. Blast-PU.1 and blast-EGFP are the ideal cell lines for compounds testing in vitro, since they are T-ALL blast cells with […] TIM-3 and PU.1 expression level.

[1] = tested on: T-ALL blast cells and TIM-3-high LICs; assay: Pten-null T-ALL mouse model, compound I-1 and/or rapamycin treatment
Protocol: To generate a Pten-null T-ALL mouse model, Pten was 40% deleted in mouse fetal liver hematopoietic stem cells (HSCs), followed by PI3K-AKT pathway activation, hematopoietic disorder and T-ALL development. In the T-ALL crisis stage, T-ALL blasts and LICs would infiltrate mouse hematopoietic organs and non-hematopoietic organs.
After treatment, hematopoietic and non-hematopoietic organ morphology of the mice was analyzed using hematoxylin-eosin (H&E) staining.

[2] = tested on: CCl4-induced liver fibrosis; assay: CCl4 (higher dose)-induced liver fibrosis model; type: in vivo, mouse; details: 5mpk or 10mpk i.p. once daily for 6 weeks
Excerpt: Methods: To evaluate the potential therapeutic effects of compound I-1 on liver disorders, including liver fat steatosis and accumulation, nonalcoholic fatty liver disease (NAFLD), nonalcoholic steatosis hepatitis (NASH), and liver fibrosis, three mice models (C57BL/6, male, 8 weeks old) were used. (I) NASH diet (Code.TD.160785, ENVIGO, USA)-induced NASH model: All mice were fed with NASH diet for 10 weeks. Mice were then randomly distributed into three groups, and each group was assigned to be injected daily with vehicle, compound I-1 (2.5mpk or 5mpk, i.p.), or DB1976 (2.5mpk, i.p, as a positive control) for another 6 weeks on continuous NASH diet. A group with normal regular diet was treated with vehicle as health control. (II) High-fat diet (HFD) combinate with CCl4 (lower dose)—induced NASH model. Mice were fed with normal regular diet or HFD (kcal fat 60%—D12492, research diets) for 10 weeks, then the HFD mice were divided into two groups randomly based on the rule of minimum weight differences. Each group was assigned to be injected with CCl4 (25% v/v in olive oil, 0.5 mL/kg body weight) or pure olive oil (i.p.) twice a week for 4 weeks. Compound 1-1 or vehicle (saline) were injected (i.p.) once daily for 4 weeks at the same time with CCl4 under continuous HFD. (III) CCl4 (higher dose)—induced liver fibrosis model. Liver fibrosis was induced by CCl4 injection (20% v/v in olive oil, 10 mL/kg body weight) twice a week for 6 weeks, compound I-1 or vehicle are also injected (i.p.) once daily for 6 weeks at the same time with CCl4 application. Ail the mice in the above-mentioned three models were observed daily. After the last day of treatment of all the models, mice were fasted overnight and euthanized. Serum was collected after centrifuging of the whole blood at 4 degrees, and blood biochemistry parameters were tested through automatic biochemical instrument (BS-240VET, Mindray). Part of liver tissues were fixed with paraformaldehyde, embedded with paraffin, and then sliced for H&E or Sirius red staining to check pathological features, and NAFLD scores. […]

## N=C(N)c1ccc2nc(-c3ccc(NC(=O)[C@@H]4CCCN4C(=O)[C@@H]4CCCN4C(=O)c4ccc(-c5nc6ccc(C(=N)N)cc6[nH]5)cc4)cc3)[nH]c2c1 [Compound I-1, (S)-1-((4-(6-carbamimidoyl-1H-benzo[d]imidazol-2-yl)benzoyl)-L-prolyl)-N-(4-(6-carbamimidoyl-1H-benzo[d]imidazol-2-yl)phenyl)pyrrolidine-2-carboxamide]
PU.1; 10 nM, 24 h treatment, Blast-PU.1 cell line, q-PCR
  downregulated the expression level of TIM-3: 40%
PU.1; Blast-PU.1 cells
  activity in terms of PU.1-mediated TIM-3 inhibition, compared among tested compounds: best activity
[1]; after two days' treatment, bone marrow, without treatment 33.5%
  TIM-3 high LICs proportion: 6.15%
[1]; after two days' treatment, bone marrow, spleen and thymus
  reduction of proportion of blasts (in words): did not reduce
[1]; treated at blast crisis stage for one month, thymus and spleen
  organ morphology (H&E staining) compared with T-ALL group: no significant changes
[2]
  CCl4-induced liver fibrosis: alleviated
  collagen deposition and Sirius red-positive area: significantly decreased
  inordinate mRNA level and blood biochemistry induced by CCl4 application: ameliorated
